We go through 7 compounds from patent publication US5521180A, “Morpholine derivative” (Yamanouchi Pharmaceutical Co., Ltd., priority 1993, dated 1996).

Structures are written as SMILES. Structures can show the parent of a compound that is named as a salt. Where two headings read alike, the source gives them in different places.

The target of one series is T1, 5-HT reuptake sites (Rattus norvegicus, UniProt P31652).
T1 construct: a rat cerebral cortex membrane preparation (about 0.4 mg-protein); from tissue; host or cells: rat cerebral cortex membrane preparation
T1 sequence (P31652 whole entry): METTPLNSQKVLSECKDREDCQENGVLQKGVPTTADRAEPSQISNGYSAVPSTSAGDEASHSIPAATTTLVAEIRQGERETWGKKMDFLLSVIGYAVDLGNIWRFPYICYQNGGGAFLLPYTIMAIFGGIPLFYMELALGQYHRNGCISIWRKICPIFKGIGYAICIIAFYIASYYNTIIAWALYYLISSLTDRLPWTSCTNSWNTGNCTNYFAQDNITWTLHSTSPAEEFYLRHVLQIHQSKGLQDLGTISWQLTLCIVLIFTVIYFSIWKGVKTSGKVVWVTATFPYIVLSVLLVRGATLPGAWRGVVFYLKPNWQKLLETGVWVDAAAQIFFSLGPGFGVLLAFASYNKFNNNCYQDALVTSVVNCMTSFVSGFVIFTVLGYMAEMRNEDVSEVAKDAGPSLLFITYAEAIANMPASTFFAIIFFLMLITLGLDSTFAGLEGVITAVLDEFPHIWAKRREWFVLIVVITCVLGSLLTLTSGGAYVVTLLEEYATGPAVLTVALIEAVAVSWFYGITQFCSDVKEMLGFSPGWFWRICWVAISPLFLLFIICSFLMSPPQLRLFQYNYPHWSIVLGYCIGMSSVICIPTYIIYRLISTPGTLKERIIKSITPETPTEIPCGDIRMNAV
Nature of the series: [3H]-Citalopram binding to 5-HT reuptake sites (5-HT reuptake inhibition, in vitro). To be noted: rat cerebral cortex membrane, about 1.0 nM [3H]-Citalopram, 25° C., 60 minutes. How it is done: The 5-HT reuptake inhibitory activity was tested by examining the degree of inhibition of a test compound on binding of [^3 H]-Citalopram to 5-HT reuptake sites.
The method of D'amato RJ, et al. described in J. Pharmacol. Exp. Ther., 242, 364 (1987) was used. A buffer solution (0.5 ml) containing about 1.0 nM of [^3 H]-Citalopram, a rat cerebral cortex membrane preparation (about 0.4 mg-protein), and a test compound was allowed to react at 25° C. for 60 minutes. Thereafter, the labeled ligand of bound form was separated form the labeled ligand of free form by suction filtration. The amount of the ligand nonspecifically bound to the 5-HT reuptake sites, which was obtained by adding excess non-labeled Fluoxetine (10 μM), was subtracted from the total amount of the bound ligand to obtain the amount of the ligand specifically bound to the 5-HT reuptake sites. The IC50 (the concentration which reduces the amount of the specifically bound ligand by 50%) for each compound was calculated and converted to a dissociation constant (Ki value). in vivo Test: […]

In a further series the target is T2, 5-HT2 receptors (Rattus norvegicus, UniProt P14842).
T2 construct: a rat cerebral cortex membrane preparation (about 0.2 mg-protein); from tissue; host or cells: rat cerebral cortex membrane preparation
T2 sequence (P14842 whole entry): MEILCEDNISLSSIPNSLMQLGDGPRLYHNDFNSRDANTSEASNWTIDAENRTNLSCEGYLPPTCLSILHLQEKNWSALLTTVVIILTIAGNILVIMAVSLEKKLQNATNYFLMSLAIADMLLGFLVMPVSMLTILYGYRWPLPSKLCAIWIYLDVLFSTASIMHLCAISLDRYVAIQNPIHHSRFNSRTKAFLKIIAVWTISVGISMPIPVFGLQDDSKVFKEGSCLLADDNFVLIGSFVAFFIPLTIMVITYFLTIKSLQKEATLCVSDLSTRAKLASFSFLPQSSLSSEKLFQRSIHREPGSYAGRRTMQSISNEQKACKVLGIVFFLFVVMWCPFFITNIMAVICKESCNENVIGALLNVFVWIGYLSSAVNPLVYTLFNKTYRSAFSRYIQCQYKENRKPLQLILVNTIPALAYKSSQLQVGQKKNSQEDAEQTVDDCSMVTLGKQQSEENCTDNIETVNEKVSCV
Put plainly: [3H]-Ketanserin binding, antagonism for 5-HT2 receptors (in vitro). As to conditions: rat cerebral cortex membrane, about 1.0 nM [3H]-Ketanserin, 25° C., 30 minutes; read-out: Antagonism for 5-HT2 Receptor (Ki Value). As to the method: The degree of inhibition of a test compound on binding of [^3 H]-Ketanserin was tested. The method of Leysen JE, et al. described in Mol. Pharmacol., 21, 301 (1982) was used. A buffer solution (0.5 ml in total) containing about 1.0 nM of [^3 H]-Ketanserin, a rat cerebral cortex membrane preparation (about 0.2 mg-protein), and a test compound was allowed to react at 25° C. for 30 minutes. Thereafter, the bound labeled ligand was separated by suction filtration. The amount of the ligand nonspecifically bound to the 5-HT2 receptors, which was obtained by adding excess non-labeled Metergoline (10 μM), was subtracted from the total amount of the bound ligand to obtain the amount of the ligand specifically bound to 5-HT2 receptors. The IC50 (the concentration at which the amount of the specifically bound ligand is reduced by 50%) for each compound was calculated and converted to a dissociation constant (Ki value).

A further series relates to 5-HT reuptake. Nature of the series: Enhancement of the action of L-5-hydroxytryptophan in mice (5-HT reuptake inhibition, in vivo). Set-up: species or system Male ICR mice. To be noted: Mus musculus, ip, intraperitoneal, 30 minutes before 90 mg/kg i.v. L-5-hydroxytryptophan. As to the method: Enhancement of the action of L-5-hydroxytryptophan which is a 5-HT precursor was tested [Naunyn-Schmiedeberg's Archives of Pharmacology, 311, 185-192 (1980)]. Male ICR mice weighing from 30 to 40 g were used. A test drug was intraperitoneally administered, and 30 minutes later 90 mg/kg of L-5-hydroxytryptophan was intravenously injected. […] The test drug was evaluated from the ED50 in manifestation of each action.

The subject of the next series is [3H]-dopamine uptake. Nature of the series: [3H]-dopamine uptake into corpus striatum synaptosomes. The format is biochemical, Wistar male rat. As to the method:
(§1) The degree of inhibition of a test compound on uptake of [^3 H]-5-HT, [^3 H]-noradrenaline and [^3 H]-dopamine into synaptosomes was examined. The method of Harada and Maeno described in Biochem. Pharmacol., 28, 2645 (1979) was used. A Wistar male rat was decapitated and the cerebral cortex and the corpus striatum were taken out. The synaptosome fraction of the cerebral cortex was prepared for 5-HT and noradrenaline uptake and that of the corpus striatum was prepared for dopamine uptake. Each synaptosome fraction was incubated at 37° C. for 3 minutes, and [^3 H]-5-HT, [^3 H]-noradrenaline and [^3 H]-dopamine (10^-7 M) was added to the respective fraction. After further incubation for 2 minutes, the system was cooled with ice (0° C.) to stop the reaction. Then, the reaction system was filtered through a Whatman CF/B glass filter, and the radioactivity trapped on the filter was measured with a liquid scintillation counter. The nonspecific activity was obtained by using a reaction system containing no test drug and having been incubated at 0° C. The test drug was evaluated from the IC50 (the concentration at which the uptake of each radioactive ligand reduced by 50%).

The subject of series [1] is [3H]-noradrenaline uptake. Put plainly: [3H]-noradrenaline uptake into cerebral cortex synaptosomes. The format is biochemical, Wistar male rat. As to the method:
as §1

Another series relates to [3H]-5-HT uptake. Nature of the series: [3H]-5-HT uptake into cerebral cortex synaptosomes. Format: biochemical, Wistar male rat. As to conditions: rat cerebral cortex synaptosomes, 10^-7 M ligand, 37° C.; read-out: IC50 in inhibition of [3H]-5-HT uptake. As to the method: as §1
The conditions of series [2]: clinical use, Physician's Desk Reference 1990; cited from earlier work.
The next series concerns α1 receptors. As to conditions: background; causes side effects based thereon; cited from earlier work.
[3] abbreviates: selectivity, about 30 or more times.

As to `Fc1ccc(OCC2CNCCO2)c2c1CCC2.O=C(O)/C=C/C(=O)O` (single isomer, unassigned; (-)) [Example 4, (-)-2-[[(7-fluoro-4-indanyl)oxy]methyl]morpholine fumarate], the Ki is 21 nM on 5-HT reuptake sites and 100 nM on 5-HT2 receptors. In addition, the ED50 in the series on 5-HT reuptake (read-out: ED50 in manifestation of head shaking behavior) was 7.2 mg/kg; with 5-HT reuptake (read-out: ED50 in manifestation of hind leg abduction) it was 14.1 mg/kg; with 5-HT reuptake (read-out: ED50 in manifestation of tremor), 6.3 mg/kg.

`Fc1ccc(OCC2CNCCO2)c2c1CCC2` (single isomer, unassigned; (-)) [Example 5, (-)-2-[[(7-fluoro-4-indanyl)oxy]methyl]morpholine hydrochloride]: the Ki on 5-HT reuptake sites is 21 nM; at 5-HT2 receptors it was 100 nM.

As for `Fc1ccc(OCC2CNCCO2)c2c1CCC2` (stereo not drawn) [Example 1, 2-[[(7-fluoro-4-indanyl)oxy]methyl]morpholine], the IC50 in series [3H]-dopamine uptake (rat corpus striatum synaptosomes, 10^-7 M ligand, 37° C., read-out: IC50 in inhibition of [3H]-dopamine uptake) was at least 10 µM; in series [1] (rat cerebral cortex synaptosomes, 10^-7 M ligand, 37° C., read-out: IC50 in inhibition of [3H]-noradrenaline uptake), 6.72 µM; in series [3H]-5-HT uptake, 227 nM. Also, the “[3H]-5-HT uptake inhibitory activity relative to [3H]-dopamine uptake inhibitory activity” value in series [3H]-dopamine uptake (setting [3]) is reported as at least 30 times. Also, in series [1] (setting [3]), the “[3H]-5-HT uptake inhibitory activity relative to [3H]-noradrenaline uptake inhibitory activity” value was at least 30 times.

For `CNCCC(Oc1ccc(C(F)(F)F)cc1)c1ccccc1` (stereo not drawn) [Fluoxetine], the “side effects during the course of therapy” value in series [2] is on record as “induces anxiety or insomnia”.

As to `O=c1n(CCCN2CCN(c3cccc(Cl)c3)CC2)nc2ccccn12` [Trazodone], in the series with α1 receptors, the “affinity to α1 receptors (in words)” value is “exhibits affinity to α1receptors”.

Turning to `c1cc2c(c(OCC3CNCCO3)c1)CCC2` (stereo not drawn) [compound 1, 2-[[(4-Indanyl)oxy]methyl]morpholine, reference compound], the Ki on 5-HT reuptake sites was 52 nM; on 5-HT2 receptors, 1030 nM.

`C1=Cc2cccc(OCC3CNCCO3)c2C1` (stereo not drawn) [compound 2, 2-[[(7-Indenyl)oxy]methyl]morpholine, reference compound]: the Ki at 5-HT reuptake sites was 22 nM; at 5-HT2 receptors, 4670 nM.

Usually Ki stands for the dissociation constant of the complex between target and ligand, obtained from inhibition or displacement. As a reminder, the ED50 is the midpoint of the dose-response relation. One may read the IC50 as the concentration that gives 50% inhibition.
